Laboratory results reported in US9278903B2, “Crystal form of prostaglandin analogue, and preparation method and use thereof” (Shanghai Techwell Biopharmaceutical Co., Ltd., priority 2012, dated 2016).

Tests used:
[1] = cited from earlier work
[2] = Storage stability of crystalline form A (HPLC); format: physicochemical
Method: (§1) Column: 4.6×250 mm 5 μm C18 column; flow rate: 2 ml/min; injection volume: 10 μl; column temperature: 35° C.; detection wavelength: 217 nm; mobile phase: acetonitrile/water/trifluoroacetic acid; Elution condition: water (60%): acetonitrile (40%): trifluoroacetic acid (0.1%); detection limit: 10 ng.
[…] […] Therefore, crystalline form A of compound I prepared by the method of the present invention has unique stability.

[3] = Stability comparison at 40° C. (HPLC purity); format: physicochemical
Method: as §1
The purity mentioned in the following Examples is HPLC purity.
Compound I from example 2, example 3 and example 4 were obtained, and subjected to stability test at 40° C., respectively. […] Therefore, crystalline form A of compound I prepared by the method of the present invention has unique stability.

[4] = cited from earlier work; remark: listed apart in the source

CCCCC[C@H](O)/C=C/[C@@H]1[C@H]2C/C(=C/CCCC(=O)O)O[C@H]2C[C@H]1O [Epoprostenol]
Half-life in circulation [1]: 3 to 5 min

CCCCC[C@H](O)CC[C@@H]1[C@H]2Cc3cccc(OCC(=O)O)c3C[C@H]2C[C@H]1O [Example 4]
Degradation on storage (HPLC) ([2]; stored at 0° C. for 12 months): did not degrade at all | Degradation on storage (HPLC) ([2]; stored at 20° C. for 6 months): did not degrade at all | Degradation on storage (HPLC) ([2]; stored at 40° C. for 2 months): did not degrade at all | Purity at 0 day (40° C.) ([3]; 0 day): 99.90% | Purity at 10 day (40° C.) ([3]; 10 day): 99.91% | Purity at 30 day (40° C.) ([3]; 30 day): 99.89% | Purity at 90 day (40° C.) ([3]; 90 day): 99.88%

CCCCC[C@H](O)CC[C@@H]1[C@H]2Cc3cccc(OCC(=O)O)c3C[C@H]2C[C@H]1O [Treprostinil]
Stability under physiological conditions [4]: stable under physiological conditions
